Activity calls are given as the source filed them. The rule behind the calls is not given here.
Legend:
A2780 [1] = assay: Induction of cell cycle arrest in human A2780 cells assessed as accumulation of cells at S phase at 1 nM measured after 24 hrs by PI staining based ell Cycle Analysis Kit (KeyGEN) (reference value: 10%); format: functional
[2] = Toxicity in BALB/c-nu mouse subcutaneously inoculated with human A2780 cells assessed as morphological changes of liver at 3 to 5 mg/kg, ip administered every day for 20 days by HE staining analysis; format: organism-based; conditions: in vivo, sc, 480 h, dose 3-5 mg/kg, time 20 day
A2780 [3] = assay: Induction of apoptosis in human A2780 cells assessed as viable cells at 800 nM measured after 24 hrs by Annexin V-FITC/PI flow cytometry (reference value: 96.1%); format: functional; conditions: read-out: Activity
A2780 [4] = assay: Induction of cell cycle arrest at S phase in human A2780 cells assessed as increase in cyclin B1 proteins measured after 24 hrs by Western blot analysis; format: functional, cell-based; conditions: dose 5-20 nM
A2780 [5] = assay: Induction of apoptosis in human A2780 cells assessed as necrotic cells at 8 nM measured after 24 to 72 hrs by Annexin V-FITC/PI flow cytometry (reference value: 0.39%); format: functional; conditions: time 24-72 hrs
A2780 [6] = assay: Induction of cell cycle arrest in human A2780 cells assessed as accumulation of cells at G2 phase in presence of SB203580 at 4 nM measured after 24 hrs by PI staining based Cell Cycle Analysis Kit (KeyGEN) (reference value: 24.5%); format: functional
A2780 [7] = assay: Induction of cell cycle arrest at S phase in human A2780 cells assessed as increase in cyclin E1 proteins measured after 24 hrs by Western blot analysis; format: functional, cell-based; conditions: dose 5-20 nM
A2780 [8] = assay: Induction of apoptosis in human A2780 cells assessed as early apoptotic cells in presence of bafilomycin A1 at 800 nM measured after 24 hrs by Annexin V-FITC/PI flow cytometry (reference value: 2.17%); format: functional
[9] = Toxicity in BALB/c-nu mouse subcutaneously inoculated with human A2780 cells assessed as morphological changes of spleen at 3 to 5 mg/kg, ip administered every day for 20 days by HE staining analysis; format: organism-based; conditions: in vivo, sc, 480 h, dose 3-5 mg/kg, time 20 day
A2780 [10] = assay: Induction of apoptosis in human A2780 cells assessed as early apoptotic cells in presence of SB203580 at 8 nM measured after 24 to 72 hrs by Annexin V-FITC/PI flow cytometry (reference value: 2.82%); format: functional; conditions: time 24-72 hrs
[11] = Toxicity in BALB/c-nu mouse subcutaneously inoculated with human A2780 cells assessed as change in body weight at 3 to 5 mg/kg, ip administered every day for 20 days; format: organism-based; conditions: in vivo, 480 h, dose 3-5 mg/kg, time 20 day
A2780 [12] = assay: Induction of apoptosis in human A2780 cells assessed as early apoptotic cells in presence of p53 SiRNA 1 at 4 nM measured after 24 hrs by Annexin V-FITC/PI flow cytometry (reference value: 2.82%); format: functional
A2780 [13] = assay: Induction of apoptosis in human A2780 cells assessed as necrotic cells at 4 nM measured after 24 hrs by Annexin V-FITC/PI flow cytometry (reference value: 0.39%); format: functional
A2780 [14] = assay: Induction of cell cycle arrest at S phase in human A2780 cells assessed as increase in CDK2 proteins measured after 24 hrs by Western blot analysis; format: functional, cell-based; conditions: dose 5-20 nM
A2780 [15] = assay: Induction of apoptosis in human A2780 cells assessed as necrotic cells at 800 nM measured after 24 hrs by Annexin V-FITC/PI flow cytometry (reference value: 0.18%); format: functional
A2780 [16] = assay: Cytotoxicity against human A2780 cells assessed as cell viability measured after 48 hrs by MTT assay; format: functional, cell-based; conditions: A2780, 48 h
A2780 [17] = assay: Inhibition of colony formation in human A2780 cells in presence of SB203580 at 0.25 nM incubated for 48 hrs by crystal violet staining based colony counting method; format: functional, cell-based
A2780 [18] = assay: Induction of cleaved PARP level in human A2780 cells at 5 to 20 nM measured after 24 hrs by Western blot analysis; format: functional, cell-based; conditions: dose 5-20 nM
A2780 [19] = assay: In vivo antitumor activity against human A2780 cells subcutaneously inoculated in BALB/c-nu mouse assessed as reduction in tumor weight at 3 to 5 mg/kg, ip administered every day for 20 days; format: functional, organism-based; conditions: dose 3-5 mg/kg, time 20.0 day
A2780 [20] = assay: Induction of cell cycle arrest at S phase in human A2780 cells assessed as increase in CDK2 proteins in presence of SB203580 measured at 10 nM after 24 hrs by Western blot analysis; format: functional, cell-based
A2780 [21] = assay: Induction of apoptosis in human A2780 cells assessed as late apoptotic cells at 4 nM measured after 24 hrs by Annexin V-FITC/PI flow cytometry (reference value: 2.54%); format: functional
A2780 [22] = assay: Induction of apoptosis in human A2780 cells assessed as early apoptotic cells at 8 nM measured after 24 to 72 hrs by Annexin V-FITC/PI flow cytometry (reference value: 2.82%); format: functional; conditions: time 24-72 hrs
A2780 [23] = assay: Induction of apoptosis in human A2780 cells assessed as early apoptotic cells at 4 nM measured after 24 hrs by Annexin V-FITC/PI flow cytometry (reference value: 2.82%); format: functional
A2780 [24] = assay: Induction of cell cycle arrest in human A2780 cells assessed as accumulation of cells at S phase at 4 nM measured after 24 hrs by PI staining based Cell Cycle Analysis Kit (KeyGEN) (reference value: 15%); format: functional
A2780 [25] = assay: Induction of cleaved PARP level in human A2780 cells in presence of autophagy inhibitor bafilomycin A1 at 5 to 20 nM measured after 24 hrs by Western blot analysis; format: functional, cell-based; conditions: dose 5-20 nM
A2780 [26] = assay: Induction of apoptosis in human A2780 cells assessed as apoptotic rate measured at 2 to 8 nM by Annexin V-FITC/PI flow cytometry; format: functional, cell-based; conditions: dose 2-8 nM, time 24-72 hrs, TDE = time-dependent effect
A2780 [27] = assay: Reduction in p62 expression in human A2780 cells in presence of autophagy inhibitor bafilomycin A1 at 5 to 20 nM measured after 24 hrs by Western blot analysis; format: functional, cell-based; conditions: dose 5-20 nM
Huh-7 = assay: Cytotoxicity against human Huh-7 cells assessed as cell viability measured after 48 hrs by MTT assay; format: functional, cell-based; conditions: Huh-7, 48 h
A2780 [28] = assay: Induction of apoptosis in human A2780 cells assessed as late apoptotic cells at 8 nM measured after 24 to 72 hrs by Annexin V-FITC/PI flow cytometry (reference value: 2.54%); format: functional; conditions: time 24-72 hrs
A2780 [29] = assay: Induction of apoptosis in human A2780 cells assessed as apoptotic rate measured after 24 to 72 hrs by Annexin V-FITC/PI flow cytometry; format: functional, cell-based; conditions: dose 2-8 nM, time 24-72 hrs
[30] = target: MAP kinase p38 (Homo sapiens) (UniProt O15264+Q15759+Q16539+P53778); assay: Activation of p38 in human A2780 cells assessed as increase phosphorylation of p38 at 5 to 20 nM measured after 24 hrs by Western blot analysis; format: cell-based; conditions: filed as activator, dose 5-20 nM
A2780 [31] = assay: Induction of cell cycle arrest in human A2780 cells assessed as accumulation of cells at G1 phase at 1 nM measured after 24 hrs by PI staining based ell Cycle Analysis Kit (KeyGEN) (reference value: 53.9%); format: functional

With CC(C)[C@]12O[C@H]1[C@@H]1O[C@]13[C@]1(O[C@H]1C[C@H]1C4=C(CC[C@@]13C)C(=O)OC4)[C@@H]2O [TRIPTOLIDE] as the compound, how does the Activity (A2780 [1]) read?
Its Activity is 14.4%.

What about the Activity [2] of the same compound?
The Activity was “Non-Toxic”.

What about the viability at 0.8 µM (A2780 [3]) of the same compound?
Its viability at 0.8 µM is 74%.

What about the Activity (A2780 [4]) of the same compound?
The Activity was “Dose-Dependent Effect”.

What about the Activity (A2780 [5]) of the same compound?
The Activity was 5.59%.

And the Activity (A2780 [6])?
Its Activity is 31.1%.

And the Activity (A2780 [7])?
The Activity was “Dose-Dependent Effect”.

And the Activity (A2780 [8])?
Its Activity is 5.02%.

What about the Activity [9] of the same compound?
The Activity was “Non-Toxic”.

What about the Activity (A2780 [10]) of the same compound?
The Activity was 13.1%.

And the Activity [11]?
Its Activity is “Non-Toxic”.

What about the Activity (A2780 [12]) of the same compound?
The Activity was 11.7%.

What about the Activity (A2780 [13]) of the same compound?
Its Activity is 9.88%.

What about the Activity (A2780 [14]) of the same compound?
Its Activity is “Dose-Dependent Effect”.

What about the Activity (A2780 [15]) of the same compound?
Its Activity is 2.33%.

What about the IC50 (A2780 [16]) of the same compound?
The IC50 was 1830 nM.

And the inhibition (A2780 [17])?
Its inhibition is “inactive”.

And the Activity (A2780 [18])?
Its Activity is “Active”.

What about the Activity (A2780 [19]) of the same compound?
The Activity was “Active”.

And the Activity (A2780 [20])?
The Activity was “inactive”.

What about the Activity (A2780 [21]) of the same compound?
Its Activity is 27.5%.

And the Activity (A2780 [22])?
Its Activity is 18.6%.

And the Activity (A2780 [23])?
The Activity was 29.5%.

What about the Activity (A2780 [24]) of the same compound?
Its Activity is 29.4%.

What about the Activity (A2780 [25]) of the same compound?
The Activity was “inactive”.

What about the Activity (A2780 [26]) of the same compound?
Its Activity is “Tde”.

And the Activity (A2780 [27])?
Its Activity is “inactive”.

And the IC50 (Huh-7)?
Its IC50 is 74.6 nM.

And the Activity (A2780 [28])?
The Activity was 20%.

And the Activity (A2780 [29])?
Its Activity is “Dose-Dependent Effect”.

What about the Activity [30] of the same compound?
The Activity was “Active”.

And the Activity (A2780 [31])?
Its Activity is 67.3%.

Source: ChEMBL document CHEMBL5608179, “Triptonide induces apoptosis and inhibits the proliferation of ovarian cancer cells by activating the p38/p53 pathway and autophagy” (Bioorg Med Chem, 2024)
